According to patent US20020065419A1, “Cyclobutenedione compounds” (priority 2000, published 2002):

Experiments:
[1] = tested on: aortic rings of New Zealand rabbits; assay: Protective vascular effects with respect to endothelial dysfunction caused by a system generating O2- (XO-Hypo), aortic rings; conditions: compound at 10^-7 M; XO 3 mU/ml, Hypo 10^-4 M; rabbit aortic rings
[2] = tested on: thoracic aorta rings of Wistar rat; assay: Vascular protective effects with respect to endothelial dysfunction caused by an inhibitor of NOS (LNA), aortic rings; conditions: compound at 10^-7 M, LNA 3x10^-7 M, relaxation due to ACh
Description: Under standard in vitro conditions, relaxation of aortic rings caused by acetylcholine (ACh), which relaxation is entirely dependent on the presence of endothelium, reflects the production of NO (stimulated by ACh), which, by diffusing to smooth muscle cells, brings about arterial relaxation (Nature, 1980, 288, 373).
the first model consists of causing inhibition of the relaxation due to ACh by blocking the enzymatic activity (endothelial NOS) responsible for the production of NO;
The thoracic aorta of a Wistar rat (325-375 g), anaesthetised by the intraperitoneal route using pentobarbital sodium (30 mg/kg), is removed and dissected into rings having a length of 3 mm. Each ring is suspended from an isometric tension sensor connected to a recording system and the initial tension applied is 2.5 g. […]
After a 90-minute stabilisation period, the preparations are contracted using phenylephrine (PHE 10^−6 M) and relaxed by adding 10^−5 M of acetylcholine in order to verify the integrity of the endothelial layer. […] The preparations are again contracted using phenylephrine and, after 30 minutes, the relaxations due to acetylcholine (ACh-10^−8 M to 10^−5 M) are assessed in the presence of indomethacin (10^−5 M).
The relaxation values are expressed as a percentage relative to the maximum contraction caused by PHE. […]

rat aortic rings = assay: Aortic production of cGMP stimulated by ACh in the presence of LNA; conditions: compound at 3x10 -M (so in the source), 30-minute incubation, ACh 10^-5 M 1 minute, LNA 3x10^-6 M
Protocol: By diffusing to the smooth muscle cells, the NO produced by the endothelial cells activates soluble guanylate cyclase, which brings about an increase in cyclic GMP, which is responsible for relaxation.
The rat aortic rings are prepared as previously. The effects of 30-minute incubation of compounds of the invention at different concentrations are assessed on the production of cGMP stimulated by ACh (10^−5 M—1 minute) in the presence of LNA (3×10^−6 M). The said experiments are carried out in the presence of isobutylmethylxanthine (10^−5 M) in order to avoid degradation of the cGMP by phosphodiesterases. The rings are frozen in liquid nitrogen and maintained at −80° C. until the assay is carried out. The cGMP content is assessed by radioimmunoassay and expressed in relation to the amount of proteins contained in the tissue (assay by the Bradford method).

SMILES: O=c1c(NCCN2CCC(COc3ccccc3)CC2)c(N2CCc3ccccc32)c1=O [Example 5, 3-(2,3-Dihydro-1H-indol-1-yl)-4-({2-[4-(Phenoxymethyl)-1-piperidinyl]-ethyl}amino)-3-cyclobutene-1,2-dione and its methanesulphonate]
- inhibition of the endothelial dysfunction caused by the XO-Hypo combination [1]: 17%
- inhibition of the endothelial dysfunction caused by LNA [2]: 27%
- increase of the production of cGMP stimulated by ACh in the presence of LNA (rat aortic rings): 39%
